From ChEMBL document CHEMBL1131397, “Synthesis and immunosuppressive activity of ruthenium complexes” (Bioorg Med Chem Lett, 1998)

Organism: Homo sapiens
Assay: Immunosuppressive activity was evaluated by the inhibition of human T-lymphocyte proliferation
Assay type: functional

Compound	IC50 (Homo sapiens)	IC50
CO[C@H]1C[C@@H]2CC[C@@H](C)[C@@](O)(O2)C(=O)C(=O)N2CCCC[C@H]2C(=O)O[C@H]([C@H](C)C[C@@H]2CC[C@@H](O)[C@H](OC)C2)CC(=O)[C@H](C)/C=C(\C)[C@@H](O)[C@@H](OC)C(=O)[C@H](C)C[C@H](C)/C=C/C=C/C=C/1C [SIROLIMUS]	0.5 nM	–
[Ru(imidazolidine)6](CF3SO3)2	–	4 nM
[Ru(imidazolidine)6]Cl2	–	5 nM
